Assays:
[1] = system: recombinant NL4-3 virus (nef section replaced with Renilla luciferase gene) in MT-2 cells; test: HIV cell culture assay (antiviral activity, luciferase readout); type: cell-based; settings: Renilla, NL43, MT-2 cells infected for 4-5 days with recombinant NL4-3 Renilla luciferase virus
How it was run: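 Antiviral EC50 derived from luciferase signal using the exponential median effect equation. Infection of MT-2 cells ran 4-5 days alongside serial dilutions of compound, with virus generated by proviral clone transfection of 293T cells.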

[2] = Compound cytotoxicity, XTT-based colorimetric assay; type: cell-based; settings: human; uninfected MT2 cells, day 4, XTT; read-out: CC50
How it was run: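 Uninfected MT2 cells were treated with compound under the same protocol as the antiviral assay. Viability was read on day 4 with an XTT colorimetric assay, from which CC50 values were derived.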

Row | Compound | EC50 [1] [pM] | CC50 at 4 days [2] [pM]
1 | Cc1cc(C2CCC(F)(F)CC2)nc2nc([C@H](Cc3cc(F)cc(F)c3)NC(=O)Cn3nc(C4CC4)c4c3C[C@@H]3C[C@H]43)n(-c3ccc(Cl)c4c(NS(C)(=O)=O)nn(CC(=O)N5CC(C)(C)OC(C)(C)C5)c34)c(=O)c12 (atropisomer, axis not shown; (P)) [Example 396, N-[(1S)-1-[(3P)-3-{4-chloro-3-methanesulfonamido-1-[2-oxo-2-(2,2,6,6-tetramethylmorpholin-4-yl)ethyl]-1H-indazol-7-yl}-7-(4,4-difluorocyclohexyl)-5-methyl-4-oxo-3H,4H-pyrido[2,3-d]pyrimidin-2-yl]-2-(3,5-difluorophenyl)ethyl]-2-[(2S,4S)-9-cyclopropyl-7,8-diazatricyclo[4.3.0.0^2,^4]nona-1(6),8-dien-7-yl]acetamide] | 20 | > 20000
2 | COCCCn1nc(NS(C)(=O)=O)c2c(Cl)ccc(-n3c([C@H](Cc4cc(F)cc(F)c4)NC(=O)Cn4nc(C(F)F)c5c4C(F)(F)[C@@H]4C[C@H]54)nc4nc(C5CCC(F)(F)CC5)cc(NCCN5CCC(F)(F)CC5)c4c3=O)c21 (atropisomer, axis not shown; (P)) [Example 498, N-[(1S)-1-[(3P)-3-[4-chloro-3-methanesulfonamido-1-(3-methoxypropyl)-1H-indazol-7-yl]-7-(4,4-difluorocyclohexyl)-5-{[2-(4,4-difluoropiperidin-1-yl)ethyl]amino}-4-oxo-3H,4H-pyrido[2,3-d]pyrimidin-2-yl]-2-(3,5-difluorophenyl)ethyl]-2-[(2S,4R)-9-(difluoromethyl)-5,5-difluoro-7,8-diazatricyclo[4.3.0.0^2,^4]nona-1(6),8-dien-7-yl]acetamide] | 18 | > 20000
3 | C[C@H](O)c1cc(C2CCC(F)(F)CC2)nc2nc([C@H](Cc3cc(F)cc(F)c3)NC(=O)Cn3nc(C(F)F)c4c3C(F)(F)[C@@H]3C[C@H]43)n(-c3ccc(Cl)c4c(NS(C)(=O)=O)nn(CCN5CCC(F)(F)CC5)c34)c(=O)c12 (relative stereo) [Example 698, N-[(1S)-1-[(3P)-3-{4-chloro-1-[2-(4,4-difluoropiperidin-1-yl)ethyl]-3-methanesulfonamido-1H-indazol-7-yl}-7-(4,4-difluorocyclohexyl)-5-[(1R**)-1-hydroxyethyl]-4-oxo-3H,4H-pyrido[2,3-d]pyrimidin-2-yl]-2-(3,5-difluorophenyl)ethyl]-2-[(2R*,4S*)-9-(difluoromethyl)-5,5-difluoro-7,8-diazatricyclo[4.3.0.0^2,4]nona-1(6),8-dien-7-yl]acetamide] | 27 | > 20000
4 | COCCCn1nc(NS(C)(=O)=O)c2c(Cl)ccc(-n3c([C@H](Cc4cc(F)cc(F)c4)NC(=O)Cn4nc(C(F)F)c5c4C(F)(F)[C@@H]4C[C@H]54)nc4nc(C5CCC(F)(F)CC5)cc(NCCN5C[C@H](F)C[C@H](F)C5)c4c3=O)c21 (atropisomer, axis not shown; (P)) [Example 509, N-[(1S)-1-[(3P)-3-[4-chloro-3-methanesulfonamido-1-(3-methoxypropyl)-1H-indazol-7-yl]-7-(4,4-difluorocyclohexyl)-5-({2-[(3R,5S)-3,5-difluoropiperidin-1-yl]ethyl}amino)-4-oxo-3H,4H-pyrido[2,3-d]pyrimidin-2-yl]-2-(3,5-difluorophenyl)ethyl]-2-[(2S,4R)-9-(difluoromethyl)-5,5-difluoro-7,8-diazatricyclo[4.3.0.0^2,^4]nona-1(6),8-dien-7-yl]acetamide] | 6 | > 20000
5 | Cc1cc(C2(F)CCC(F)(F)CC2)nc2nc([C@H](Cc3cc(F)cc(F)c3)NC(=O)Cn3nc(C4CC4)c4c3C(F)(F)[C@@H]3C[C@H]43)n(-c3ccc(Cl)c4c(NS(C)(=O)=O)nn(CCN5C[C@H](F)C[C@H](F)C5)c34)c(=O)c12 (atropisomer, axis not shown; (P)) [Example 570, N-[(1S)-1-[(3P)-3-(4-chloro-1-{2-[(3R,5S)-3,5-difluoropiperidin-1-yl]ethyl}-3-methanesulfonamido-1H-indazol-7-yl)-5-methyl-4-oxo-7-(1,4,4-trifluorocyclohexyl)-3H,4H-pyrido[2,3-d]pyrimidin-2-yl]-2-(3,5-difluorophenyl)ethyl]-2-[(2S,4R)-9-cyclopropyl-5,5-difluoro-7,8-diazatricyclo[4.3.0.0^2,^4]nona-1(6),8-dien-7-yl]acetamide] | 29 | > 20000
6 | COC[C@H]1CN(CCn2nc(NS(C)(=O)=O)c3c(Cl)ccc(-n4c([C@H](Cc5cc(F)cc(F)c5)NC(=O)Cn5nc(C(F)F)c6c5C(F)(F)[C@@H]5C[C@H]65)nc5nc(C6CCC(F)(F)CC6)ccc5c4=O)c32)CCO1 (atropisomer, axis not shown; (P)) [Example 356, N-[(1S)-1-[(3P)-3-(4-chloro-3-methanesulfonamido-1-{2-[(2R)-2-(methoxymethyl)morpholin-4-yl]ethyl}-1H-indazol-7-yl)-7-(4,4-difluorocyclohexyl)-4-oxo-3H,4H-pyrido[2,3-d]pyrimidin-2-yl]-2-(3,5-difluorophenyl)ethyl]-2-[(2S,4R)-9-(difluoromethyl)-5,5-difluoro-7,8-diazatricyclo[4.3.0.0^2,^4]nona-1(6),8-dien-7-yl]acetamide] | 29 | > 50000
7 | C[C@@H]1CN(Cc2cc(C3CCC(F)(F)CC3)nc3nc([C@H](Cc4cc(F)cc(F)c4)NC(=O)Cn4nc(C(F)F)c5c4C(F)(F)[C@@H]4C[C@H]54)n(-c4ccc(Cl)c5c(NS(C)(=O)=O)nn(CCN6CCC(F)CC6)c45)c(=O)c23)C[C@H](C)O1 (atropisomer, axis not shown; (P)) [Example 527, N-[(1S)-1-[(3P)-3-{4-chloro-1-[2-(4-fluoropiperidin-1-yl)ethyl]-3-methanesulfonamido-1H-indazol-7-yl}-7-(4,4-difluorocyclohexyl)-5-{[(2R,6S)-2,6-dimethylmorpholin-4-yl]methyl}-4-oxo-3H,4H-pyrido[2,3-d]pyrimidin-2-yl]-2-(3,5-difluorophenyl)ethyl]-2-[(2S,4R)-9-(difluoromethyl)-5,5-difluoro-7,8-diazatricyclo[4.3.0.0^2,^4]nona-1(6),8-dien-7-yl]acetamide] | 12 | > 20000
8 | Cc1cc(C2(F)CCC(F)(F)CC2)nc2nc([C@H](Cc3cc(F)cc(F)c3)NC(=O)Cn3nc(C4CC4)c4c3C[C@@H]3C[C@H]43)n(-c3ccc(Cl)c4c(NS(C)(=O)=O)nn([C@@H](C)CN5C[C@H](F)C[C@H](F)C5)c34)c(=O)c12 (relative stereo) [Example 754, N-[(1S)-1-[(3P)-3-{4-chloro-1-[(2S)-1-[(3R,5S)-3,5-difluoropiperidin-1-yl]propan-2-yl]-3-methanesulfonamido-1H-indazol-7-yl}-5-methyl-4-oxo-7-(1,4,4-trifluorocyclohexyl)-3H,4H-pyrido[2,3-d]pyrimidin-2-yl]-2-(3,5-difluorophenyl)ethyl]-2-[(2R*,4R*)-9-cyclopropyl-7,8-diazatricyclo[4.3.0.0^2,^4]nona-1(6),8-dien-7-yl]acetamide] | 75 | > 20000
9 | CS(=O)(=O)Nc1nn(CCN2C[C@H](F)C[C@H](F)C2)c2c(-n3c([C@H](Cc4cc(F)cc(F)c4)NC(=O)Cn4nc(C5CC5)c5c4C[C@@H]4C[C@H]54)nc4nc(C5CCC(F)(F)CC5)cc(C5CC5)c4c3=O)ccc(Cl)c12 (atropisomer, axis not shown; (P)) [Example 327, N-[(1S)-1-[(3P)-3-(4-chloro-1-{2-[(3R,5S)-3,5-difluoropiperidin-1-yl]ethyl}-3-methanesulfonamido-1H-indazol-7-yl)-5-cyclopropyl-7-(4,4-difluorocyclohexyl)-4-oxo-3H,4H-pyrido[2,3-d]pyrimidin-2-yl]-2-(3,5-difluorophenyl)ethyl]-2-[(2S,4S)-9-cyclopropyl-7,8-diazatricyclo[4.3.0.0^2,^4]nona-1(6),8-dien-7-yl]acetamide] | 8 | > 50000
10 | CCc1cc(C2CCC(F)(F)CC2)nc2nc([C@H](Cc3cc(F)cc(F)c3)NC(=O)Cn3nc(C(F)F)c4c3C[C@H]3C[C@@H]43)n(-c3ccc(Cl)c4c(NS(C)(=O)=O)nn(CCOC)c34)c(=O)c12 (relative stereo) [Example 636, N-[(1S)-1-[(3P)-3-[4-chloro-3-methanesulfonamido-1-(2-methoxyethyl)-1H-indazol-7-yl]-7-(4,4-difluorocyclohexyl)-5-ethyl-4-oxo-3H,4H-pyrido[2,3-d]pyrimidin-2-yl]-2-(3,5-difluorophenyl)ethyl]-2-[(2R*,4R*)-9-(difluoromethyl)-7,8-diazatricyclo[4.3.0.0^2,^4]nona-1(6),8-dien-7-yl]acetamide] | 15 | > 50000
11 | Cc1cc(C2(CF)CCC(F)(F)CC2)nc2nc([C@H](Cc3cc(F)cc(F)c3)NC(=O)Cn3nc(C4CC4)c4c3C[C@@H]3C[C@H]43)n(-c3ccc(Cl)c4c(NS(C)(=O)=O)nn(CCN5C[C@@H](C)O[C@@H](C)C5)c34)c(=O)c12 (atropisomer, axis not shown; (P)) [Example 557, N-[(1S)-1-[(3P)-3-(4-chloro-1-{2-[(2R,6S)-2,6-dimethylmorpholin-4-yl]ethyl}-3-methanesulfonamido-1H-indazol-7-yl)-7-[4,4-difluoro-1-(fluoromethyl)cyclohexyl]-5-methyl-4-oxo-3H,4H-pyrido[2,3-d]pyrimidin-2-yl]-2-(3,5-difluorophenyl)ethyl]-2-[(2S,4S)-9-cyclopropyl-7,8-diazatricyclo[4.3.0.0^2,^4]nona-1(6),8-dien-7-yl]acetamide] | 7 | > 20000

— patent US12594276B2, “Inhibitors of human immunodeficiency virus replication” (ViiV Healthcare UK (No.5) Limited, priority 2024, dated 2026)
